Laboratory results as given in patent US20240350469A1, “TREATMENT OF LOWER RESPIRATORY TRACT INFECTION WITH TRADIPITANT” (Vanda Pharmaceuticals Inc., priority 2021, published 2024).

Test system: severe or critical COVID-19 infection
Assay: Randomized, double-blind, placebo-controlled study of tradipitant in hospitalized patients with COVID-19 pneumonia (interim analysis, ITT)
Assay type: in vivo
Conditions: ITT; for Hazard ratio (95% CI), responder as improvement of 2 or more points: tradipitant vs placebo, Cox model, >1 benefit for tradipitant
[1] = Day 7, ordinal score at baseline 2, tradipitant N = 4
[2] = Day 7, ordinal score at baseline 3, tradipitant N = 13
[3] = Day 7, ordinal score at baseline 4, tradipitant N = 9
[4] = Day 7, overall, tradipitant N = 28
[5] = Day 28, ordinal score at baseline 2, tradipitant N = 4
[6] = Day 28, ordinal score at baseline 3, tradipitant N = 13
[7] = Day 28, ordinal score at baseline 4, tradipitant N = 9
[8] = Day 28, overall, tradipitant N = 28
[9] = ordinal score at baseline 2, tradipitant N = 4
[10] = ordinal score at baseline 3, tradipitant N = 13

O=C(c1ccccc1Cl)c1cccnc1-c1nnn(Cc2cc(C(F)(F)F)cc(C(F)(F)F)c2)c1-c1ccncc1 [Tradipitant]
Median time to responder [1]: 4 days
Mortality, KM estimate [1]: 25.0%
No. of responders (improvement of 2 or more points on 7 point ordinal scale) [1]: 3
Mortality, KM estimate [2]: 0.0%
No. of responders (improvement of 2 or more points on 7 point ordinal scale) [2]: 2
Median time to responder [3]: 4 days
Mortality, KM estimate [3]: 25.0%
No. of responders (improvement of 2 or more points on 7 point ordinal scale) [3]: 6
Mortality, KM estimate [4]: 9.8%
No. of responders (improvement of 2 or more points on 7 point ordinal scale) [4]: 13
Hazard ratio (95% CI), responder as improvement of 2 or more points (Day 7, overall): 2.55
Median time to responder [5]: 4 days
Mortality, KM estimate [5]: 50.0%
No. of responders (improvement of 2 or more points on 7 point ordinal scale) [5]: 3
Median time to responder [6]: 27 days
Mortality, KM estimate [6]: 9.1%
No. of responders (improvement of 2 or more points on 7 point ordinal scale) [6]: 4
Median time to responder [7]: 4 days
Mortality, KM estimate [7]: 25.0%
No. of responders (improvement of 2 or more points on 7 point ordinal scale) [7]: 7
Median time to responder [8]: 10 days
Mortality, KM estimate [8]: 20.4%
No. of responders (improvement of 2 or more points on 7 point ordinal scale) [8]: 16
Hazard ratio (95% CI), responder as improvement of 2 or more points (Day 28, overall): 1.55
No. of deaths by day 7 [9]: 1
No. of deaths by day 28 [9]: 2
Ordinal Score at Day 7 = 1 (Death), % of patients [9]: (25.0) %
Ordinal Score at Day 7 = 1 (Death), no. of patients [9]: 1
Ordinal Score at Day 7 = 2 (Hospitalized, on invasive mechanical ventilation or ECMO), % of patients [9]: (25.0) %
Ordinal Score at Day 7 = 2 (Hospitalized, on invasive mechanical ventilation or ECMO), no. of patients [9]: 1
Ordinal Score at Day 7 = 3 (Hospitalized, on non-invasive ventilation or high flow oxygen devices), % of patients [9]: (0.0) %
Ordinal Score at Day 7 = 3 (Hospitalized, on non-invasive ventilation or high flow oxygen devices), no. of patients [9]: 0
Ordinal Score at Day 7 = 4 (Hospitalized, requiring supplemental oxygen), % of patients [9]: (25.0) %
Ordinal Score at Day 7 = 4 (Hospitalized, requiring supplemental oxygen), no. of patients [9]: 1
Ordinal Score at Day 7 = 5 (Hospitalized, not requiring supplemental oxygen), % of patients [9]: (25.0) %
Ordinal Score at Day 7 = 5 (Hospitalized, not requiring supplemental oxygen), no. of patients [9]: 1
Ordinal Score at Day 7 = 7 (Not hospitalized), % of patients [9]: (0.0) %
Ordinal Score at Day 7 = 7 (Not hospitalized), no. of patients [9]: 0
Ordinal Score at Day 28 = 1 (Death), % of patients [9]: (50.0) %
Ordinal Score at Day 28 = 1 (Death), no. of patients [9]: 2
Ordinal Score at Day 28 = 2 (Hospitalized, on invasive mechanical ventilation or ECMO), % of patients [9]: (0.0) %
Ordinal Score at Day 28 = 2 (Hospitalized, on invasive mechanical ventilation or ECMO), no. of patients [9]: 0
Ordinal Score at Day 28 = 3 (Hospitalized, on non-invasive ventilation or high flow oxygen devices), % of patients [9]: (0.0) %
Ordinal Score at Day 28 = 3 (Hospitalized, on non-invasive ventilation or high flow oxygen devices), no. of patients [9]: 0
Ordinal Score at Day 28 = 4 (Hospitalized, requiring supplemental oxygen), % of patients [9]: (0.0) %
Ordinal Score at Day 28 = 4 (Hospitalized, requiring supplemental oxygen), no. of patients [9]: 0
Ordinal Score at Day 28 = 7 (Not hospitalized), % of patients [9]: (50.0) %
Ordinal Score at Day 28 = 7 (Not hospitalized), no. of patients [9]: 2
No. of deaths by day 7 [10]: 0
No. of deaths by day 28 [10]: 1
Ordinal Score at Day 7 = 1 (Death), % of patients [10]: (0.0) %
Ordinal Score at Day 7 = 1 (Death), no. of patients [10]: 0
Ordinal Score at Day 7 = 2 (Hospitalized, on invasive mechanical ventilation or ECMO), % of patients [10]: (61.5) %
Ordinal Score at Day 7 = 2 (Hospitalized, on invasive mechanical ventilation or ECMO), no. of patients [10]: 8
Ordinal Score at Day 7 = 3 (Hospitalized, on non-invasive ventilation or high flow oxygen devices), % of patients [10]: (23.1) %
Ordinal Score at Day 7 = 3 (Hospitalized, on non-invasive ventilation or high flow oxygen devices), no. of patients [10]: 3
Ordinal Score at Day 7 = 4 (Hospitalized, requiring supplemental oxygen), % of patients [10]: (0.0) %
Ordinal Score at Day 7 = 4 (Hospitalized, requiring supplemental oxygen), no. of patients [10]: 0
Ordinal Score at Day 7 = 5 (Hospitalized, not requiring supplemental oxygen), % of patients [10]: (7.7) %
Ordinal Score at Day 7 = 5 (Hospitalized, not requiring supplemental oxygen), no. of patients [10]: 1
Ordinal Score at Day 7 = 7 (Not hospitalized), % of patients [10]: (7.7) %
